Measurements as given in patent US10898436B2, “Nanoparticle compositions for generation of regulatory T cells and treatment of autoimmune diseases and other chronic inflammatory conditions” (Topas Therapeutics GmbH, priority 2011, dated 2021).
No end group written: not given here.

Tests used:
[1] = test system: CD4+CD25− T cells; assay: Generation of Treg cells from CD4+CD25− non-regulatory T cells by antigen presenting cells; type: cell-based, mouse
Experimental: Mouse liver non-parenchymal cells were isolated applying a protocol modified from (28). Briefly, mouse livers were perfused with 0.05% collagenase IV (Sigma; Taufkirchen, Germany) in Gey's balanced salt solution, mechanically dissected and further digested in 0.05% collagenase IV in Gey's balanced salt solution for 25 minutes at 37° C. at constant rotation (240 rpm). Hepatocytes and debris were sedimented twice at 40 g and non-parenchymal cells were recovered by centrifugation over a 17% Optiprep (Sigma) gradient at 400 g.
Liver sinusoidal endothelial cells (LSEC) were purified from the non-parenchymal cells as described (29) by magnetic sorting with the ME-9F1 antibody (Miltenyi Biotech, Bergisch-Gladbach, Germany). LSEC were seeded on collagen-coated culture plates (Serva, Heidelberg, Germany). After overnight culture in Iscove's modified Dulbecco's medium supplemented with 5% FCS, non-adherent cells were removed by medium change. Accordingly, Kupffer cells were purified from the non-parenchymal cells by magnetic sorting with biotinylated F4/80 antibody (eBioscience, Frankfurt, Germany) and anti-biotin microbeads (Miltenyi).
Alternatively, hepatocytes were isolated from mouse livers as described (30); and dendritic cells were isolated from mouse spleen by magnetic cell separation for CD11c as described (30).
10^5 LSEC, 10^5 Kupffer cells, or 5×10^3 hepatocytes were seeded into 96-well plates, and used on the following day for stimulation of CD4+CD25− T cells. Alternatively, 5×10^4 dendritic cells, were seeded into 96-well plates, and used on the same day for stimulation of CD4+CD25− T cells. These CD4+CD25− non-regulatory T cells were isolated from mouse spleens by magnetic cell separation, and 5×10^5 purified lymphocytes per well were then stimulated on the indicated antigen presenting cells in serum-free medium (Pan Biotech, Aidenbach, Germany) with solute antibody to CD3 (BD Bioscience, Heidelberg, Germany). After four days of culture, the T cells were harvested and analysed by flow cytometry for the percentage of CD4+CD25+FOXP3+ Treg cells. […]

[2] = Zeta potential measurement (Malvern Zetasizer Nano-ZS); type: physicochemical; settings: 20° C.
Experimental: FIG. 12: Characteristics of NP and MBP-NP. A) The Zeta potentials of NP and MBP-NP were measured at 20° C. using a Malvern Zetasizer Nano-ZS instrument. […] No differences in size could be detected by B) size exclusion chromatography (MBP-NP: left line; NP: right line) or C) by transmission electron microscopy. For electron microscopy, samples were stained with 1% sodium silicotungstate, pH 7, so that the organic shell appears light and the iron oxide core dark.

[3] = test system: Splenic CD4+Foxp3− T cells from tg4×Foxp3gfp.KI mice; assay: Treg conversion by LSEC in vitro with nanoparticle-conjugated or free MBP peptide; type: cell-based; settings: co-culture with LSEC, TGFβ 2 ng/ml, MBP peptide 5 ng/ml or equivalent dose, four days, flow cytometry (FIG. 11); in % (unit assumed)
Experimental: FIG. 11: Efficient Treg conversion by LSEC in vitro using nanoparticle-conjugated MBP peptide or free MBP peptide. Splenic CD4+Foxp3− T cells from tg4×Foxp3gfp.KI mice were co-cultured with LSEC in the presence of TGFβ (2 ng/ml) and free MBP peptide (5 ng/ml) or an equivalent dose of MBP peptide coupled to nanoparticles (MBP-NP) for four days. Foxp3 induction in CD4+ T cells was then analyzed by flow cytometry. For statistical analysis, Mann-Whitney test was performed (free MBP: 32.16±1.075; MBP-NP: 29.63±1.558; P=0.2857). n.s.=not significant.
(§1) To further investigate the cellular tropism of administered peptide-nanoparticle conjugates, conventional as well as intravital confocal fluorescence microscopy of the liver was performed, using nanoparticles with a fluorescent quantum dot core (44). Prior to administration of fluorescent MBP peptide-nanoparticle conjugates, recipient mice were injected with FITC-dextran that is rapidly absorbed by LSEC. […] To confirm that delivered peptide can be presented to T cells, Treg conversion in vitro by LSEC in the presence of free MBP peptide or of MBP peptide bound to nanoparticles (MBP-NP) was studied.

[4] = test system: LSEC; assay: Cellular tropism of peptide-nanoparticle conjugates in liver (intravital confocal microscopy, electron microscopy); type: in vivo, mice
Experimental: (§2) FIG. 7: Targeted delivery of MBP peptides to LSEC with nanoparticles. A) Plasma clearance rates of MBP peptide coupled to ^59Fe-NP (MBP-^59Fe-NP) and ^14C-MBP peptide coupled to unlabeled NP(^14C-MBP-NP). B) Organ distribution of MBP-^59Fe-NP and ^14C-MBP-NP 60 min after intravenous injection. Mean values±s.e.m. are shown (n=4). C) Representative coronal and transversal MR images of mice pre and post injection of unloaded NP or MBP-NP. D) Intravital confocal microscopy of the liver showing uptake of MBP-NP or unloaded NP by LSEC. Nuclei were also stained. right panel: LSEC (FITC-dextran), left panel: quantum dot-labeled NP; scale bar: 20 μm. E) Electron microscopy of liver, 60 min after intravenous injection of MBP-NP or unloaded NP.
as §1

[5] = test system: MBP-induced EAE in B10.PL mice; assay: MBP-induced EAE in B10.PL mice with Treg depletion by PC61 antibody; type: in vivo
Experimental: (§3) FIG. 8: Nanoparticle-based delivery of neuroantigen peptides to LSEC prevents EAE induction. EAE was induced in B10.PL wildtype mice (A, E) or tg4 mice (B) by immunization to MBP. In C57BL/6 wildtype mice (C) or hCD2-ΔkTβRII mice (D), EAE was induced by immunization to MOG. One day after EAE induction, mice were injected once intravenously with PBS (A-E) or neuroantigen peptide-loaded nanoparticles (MBP-NP (A, B, E) or MOG-NP (C, D,). As control, mice received equivalent amounts of unloaded NP (A, C) or unconjugated MBP peptide (B,). E, Twice per week, mice treated with MBP-NP were intraperitoneally injected with Treg-depleting PC61 antibody (MBP-NP/Treg-depleted) or isotype-matched control antibody (MBP-NP). Shown are mean EAE scores±s.e.m. (n=5-7).
FIG. 13: Depletion of CD25+Foxp3+CD4+ Treg in vivo by repeated PC61 antibody-administration. B10.PL mice were immunized to MBP peptide and treated on the next day with PBS (n=7) or MBP peptide-coupled nanoparticles (MBP-NP). Mice, which received MBP-NP, were then either treated twice per week with Treg-depleting PC61 antibody (n=5) or non-depleting isotype-matched control antibody (n=6). Mice were sacrificed on day 29 post immunization and spleens were analyzed for Treg depletion efficiency by flow cytometry. Results are depicted as mean % of CD25+Foxp3+of CD4+ T cells±s.e.m. (PBS 17.16±0.3422; MBP-NP+isotype 15.08±0.8594; MBP-NP+PC61 3.160±0.4643; P<0.001). For comparison of multiple groups, one-way ANOVA and Tukey's post test were performed.
As the inventors have shown above that tolerance induction by LSEC required TGFβ signaling to T cells, they reasoned that nanoparticle-based targeting of autoantigen peptides to LSEC should be ineffective in mice with TGFβ-insensitive T cells. […] Thus, it can be concluded that also in vivo, the efficacy of nanoparticle-mediated tolerance induction is dependent on TGFβ signaling to T cells. […]

[6] = Organ uptake by dynamic magnetic resonance imaging; type: in vivo, mice; settings: FIG. 7C
Experimental: as §2
(§4) To develop a method for selective delivery of autoantigen to LSEC in vivo, the inventors made use of nanoparticles (NP) that are rapidly cleared from the circulation through uptake by liver cells. Specifically, the inventors took advantage of a polymer-coated nanoparticle (43), which they observed to accumulate selectively in liver sinusoidal endothelium (data not shown). […] Low amounts of radioactivity could be detected in spleen and kidney, whereas uptake into other organs was negligible. […]

[7] = test system: experimental autoimmune encephalomyelitis (EAE) in B10.PL mice; assay: Treatment of EAE with autoantigen-loaded nanoparticles (Example 4); type: in vivo; settings: injected into B10.PL mice one day after EAE induction by Ac1-9 MBP peptide (FIG. 5)
Experimental: For covalent conjugation of neuroantigen peptide (encephalitogenic Ac1-9 peptide derived from the amino acid sequence of myelin basic protein), iron oxide-core nanoparticles were synthesized as described in example 3 and adjusted to a concentration of 6 μmol/L in 50 mM SBB-buffer (pH=9). An equal amount of 1-Ethyl-3-(3-dimethylaminopropyl)carbodiimide (c=[…]), dissolved in a 50 mM SBB-buffer (pH=9), was added. After 5 minutes, a 1000-fold excess of the neuroantigen peptide was added and the solution was incubated under rotation for 2h at room temperature and then overnight at 4° C. On the next day, the solution was filtered under centrifugal force in a filter device (100 kDa, 2500 g, 4° C.) and the remnant resuspended in PBS. This procedure was repeated 20 times to remove all excess peptide. The obtained peptide-particle conjugates were dissolved in PBS and subjected to size-exclusion-chromatography to assure for the absence of free peptide. Then, the iron content was measured to determine the concentration of the peptide-particle suspension.
Results: The thus obtained peptide-loaded nanoparticles or, as control, unconjugated peptide-free nanoparticles were then injected into B10.PL mice (n=6), one day after induction of experimental autoimmune encephalomyelitis (EAE) by immunization to Ac1-9 myelin basic protein peptide (25).

[8] = test system: EAE in tg4 mice; assay: Prevention of MBP-induced EAE in tg4 mice; type: in vivo; settings: single injection one day after EAE-induction, tg4 mice (FIG. 8B)
Experimental: as §3
(§5) The proposed immunosuppressive effect of MBP-nanoparticles in vivo was first tested in MBP-induced EAE in B10.PL mice (FIG. 8A). […] To confirm the efficacy of the inventive treatment approach in another independent disease model, the effect of nanoparticles loaded with myelin oligodendrocyte glycoprotein (MOG) peptides on the development of MOG-induced EAE was tested in C57BL/6 mice.

[9] = test system: MBP-induced EAE in B10.PL mice; assay: Prevention of MBP-induced EAE in B10.PL mice; type: in vivo; settings: single intravenous injection one day after EAE-induction, B10.PL mice (FIG. 8A)
Experimental: as §3, §5

[10] = parameters: species or system mice; settings: mouse, in vivo, iv
Experimental: as §2, §4

Substance: TGFβ: exogenous cytokine added to some stimulation cultures
- percentage of CD4+CD25+FOXP3+ Treg cells among stimulated T cells ([1]; LSEC-stimulated T cells, in the presence of TGFβ, four days of culture): 38%
- percentage of CD4+CD25+FOXP3+ Treg cells among stimulated T cells ([1]; dendritic cell-stimulated T cells, in the presence of exogenous TGFβ, four days of culture): 7.5%
- percentage of CD4+CD25+FOXP3+ Treg cells among stimulated T cells ([1]; liver cell-stimulated T cells (LSEC, Kupffer cells and hepatocytes), in the presence of exogenous TGFβ): at least 20%

Substance: MBP-NP: Ac1-9 myelin basic protein peptide covalently conjugated by carbodiimide to polymer-coated iron oxide-core nanoparticles (Ac-MGNHSGKRE; also: carbodiimide-conjugated to polymer-coated iron oxide nanoparticles; UniProt P04370 1-9, looked up, fragment)
- averaged Zeta-potential [2]: −61.6 mV
- Foxp3 induction in CD4+ T cells [3]: 29.63±1.558
- uptake by LSEC by transmission electron microscopy ([4]; 60 min after intravenous injection (FIG. 7E)): sizeable internalization
- localisation in liver by intravital confocal fluorescence microscopy ([4]; quantum dot core, intravenous injection, FITC-dextran stained LSEC (FIG. 7D)): co-localized with FITC-dextran stained LSEC
- protection from EAE ([5]; Treg-depleted mice (repeated PC61 antibody) (FIG. 8E)): could not prevent the development of disease
- protection from EAE ([5]; control mice (isotype-matched control antibody) (FIG. 8E)): induced protection from EAE
- mean % of CD25+Foxp3+of CD4+ T cells±s.e.m. ([5]; spleens, day 29 post immunization, flow cytometry, B10.PL mice (FIG. 13)): 15.08±0.8594%
- organ uptake by dynamic magnetic resonance imaging [6]: only hepatic targeting
- protection from clinical EAE [7]: complete protection from clinical EAE
- clinical EAE [8]: protected from disease
- clinical EAE [9]: lasting and almost complete protection from clinical EAE

Substance: free MBP peptide: encephalitogenic Ac1-9 peptide derived from the amino acid sequence of myelin basic protein, not coupled (Ac-MGNHSGKRE; UniProt P04370 1-9, looked up, fragment) [reference compound]
- Foxp3 induction in CD4+ T cells [3]: 32.16±1.075
- clinical EAE [8]: developed severe EAE

Substance: MBP-^59Fe-NP: 59Fe-radiolabeled nanoparticles conjugated to non-labeled MBP peptide (MGNHSGKRE; also: conjugated to 59Fe-labelled nanoparticles; UniProt P04370 1-9, looked up, fragment)
- plasma clearance kinetics of radiolabel [10]: cleared with similar kinetics

Substance: ^14C-MBP-NP: 14C-radiolabeled MBP peptide coupled to unlabeled NP (MGNHSGKRE; also: 14C label, nanoparticle conjugate; UniProt P04370 1-9, looked up, fragment)
- plasma clearance kinetics of radiolabel [10]: cleared with similar kinetics
